Where “and” joins values, the source holds several entries; their conditions need not be identical. Equal entries are not always repeated. Entries after “also recorded” stand apart in the source; their conditions may differ.
Key:
zebrafish embryos [1] = test: Inhibition of melanin synthesis in zebrafish embryos, treated 24-76 hpf (Protocol 1); type: in vivo; conditions: zebrafish embryos treated 24-76 hpf
Procedure: (§1) The testing protocols for these compounds are as follows: • a. […] The embryos were monitored and imaged throughout their development to track the development of melanin pigment relative to a control group to which water was administered (Protocol 1). • b. […] The embryos were again monitored and imaged throughout their development relative to a control group to which water was administered (Protocol 2). • c. Additionally, to test the ability of the pigment to recover after being treated with our drugs, all embryos were treated at 24 hpf with the chemicals until the 48 hpf or 64 hpf time period, then washed with water to remove the treatment. The embryos were again monitored and imaged throughout their development relative to a control group to which water was administered (Protocol 3).
(§2) The black pigment (or melanin) is very easy to observe in zebrafish. In brief, adult zebrafish are taken to breed embryos. Morphologically normal embryos of 24 hours post fertilization (hpf) stage were selected for incubation in the drugs from 24 to 76 hours. During the incubation, the embryos are monitored and imaged (see FIGS. 1 and 3) to track the development of melanin. […] To broaden the comparison with other skin-whitening products, this project can also test at least three other compounds, Kojic acid, Gallic acid and Haginin. […] In the meantime, the whole organism context also allows us to examine the toxicological profile, if any, of these compounds.

zebrafish embryos [2] = test: Effect on existing melanin and/or melanocytes, embryos treated at 48 hpf (Protocol 2); type: in vivo
Procedure: (§3) The testing protocols for these compounds are as follows: • a. […] The embryos were monitored and imaged throughout their development to track the development of melanin pigment relative to a control group to which water was administered (Protocol 1). • b. To test the effects of the drugs on existing melanin and/or melanocytes, the embryos were treated with the chemicals at 48 hpf, after pigment had developed. The embryos were again monitored and imaged throughout their development relative to a control group to which water was administered (Protocol 2). • c. Additionally, to test the ability of the pigment to recover after being treated with our drugs, all embryos were treated at 24 hpf with the chemicals until the 48 hpf or 64 hpf time period, then washed with water to remove the treatment. The embryos were again monitored and imaged throughout their development relative to a control group to which water was administered (Protocol 3).
To test the effects of the drugs on existing melanin and/or melanocytes, the embryos were treated with the chemicals A11, MEK-I and PTU at 48 hpf, after pigment had developed. The embryos were again monitored and imaged throughout their development according to Protocol 2.

zebrafish embryos [3] = test: Pigment recovery after compound withdrawal (Protocol 3); type: in vivo; conditions: treated 24-48 hpf or 24-64 hpf, then washed, by 72 hpf
Procedure: as §3
It has been reported that melanin usually reappears after the withdrawal of skin whitening products. […] The pigmentation was monitored closely for 48-72 hours. Similarly, this experiment was repeated at least three times to gain a reproducible result.

zebrafish embryos [4] = test: Skin Lightening Efficacy of All Analogs on Zebrafish Embryos (Table 1); type: in vivo; conditions: concentration not given
Procedure: as §1, §2

B16-F10 melanoma cells [5] = test: cells; type: cell-based
B16-F10 melanoma cells [6] = test: Melanin in melanoma cells; type: cell-based, mouse; conditions: for Melanin: melanoma cells
From the text: (MEK-I is a known MEK inhibitor as a comparison purchased from Sigma): […]

[7] = test system: primary human melanocytes; test: Growth of normal melanocytes; type: cell-based
Procedure: These cells proliferate slowly making it difficult to gather enough cells for experiments with all the A11 analogs. […] In the second experiment, A7 and a few other compounds were evaluated. […] At 10 μM, FSK-03-92 caused near 80% lethality (comparing with the 20% kill by 10 μM FSK-03-92 on melanoma cells in FIG. 14).

[8] = test system: transgenic melanoma zebrafish embryos; test: Melanoma formation and recovery in transgenic melanoma zebrafish embryos; type: in vivo
Procedure: (§4) The intracellular signaling pathway that involves Raf and MEK is known to be the major pathway to regulate cell proliferation. Many current melanoma drugs such as cobimetinib works by inhibiting Raf or MEK. While they are effective in inhibiting melanoma growth, they exert different degrees of side effect on normal cells by inhibiting the Raf-MEK pathway. […] Also, with regard to FIG. 13, the compound SK-03-92 is shown to inhibit melanoma cell growth by approximately 10% at 10 μM and at 100% at 40 μM.

melanoma cells = test: Mitotic index of melanoma cells (anti-phospho-histone H3 antibody); type: cell-based, mouse; conditions: anti-phospho-histone H3 (FIG. 16)
[9] = test system: melanocytes in zebrafish embryos; test: Mitotic index of melanocytes in zebrafish embryos; type: in vivo; conditions: zebrafish embryo (FIG. 17)
[10] = test system: melanocytes in zebrafish embryos; test: TUNEL assay, melanocyte apoptosis in normal and transgenic melanoma-forming zebrafish embryos; type: in vivo; conditions: normal and transgenic melanoma-forming embryos (FIGS. 18A-18B)
MAPK = test: Western blot for phosphorylated MAPK in melanoma cells; type: cell-based, mouse; conditions: melanoma cells (FIG. 19A)
From the text: We wanted to further understand the molecular mechanism of A11 and its derivatives by examining the activities of MAPK, Akt, and PRPP pathways which regulate cell proliferation and cell death.
MAPK is involved in the major cell proliferation signaling pathway. In many cancer cells, MAPK is activated at high level by phosphorylation. Using the anti-phosphorylated-MAPK (p-MAPK) on western blot, it is very easy to understand the proliferation ability in cells. […] While the results are against our hypothesis and current understanding, it raises a very interesting mechanism of A11 which requires further investigation. […] The current understanding is that activated MAPK and Akt both lead to cell proliferation.

Akt = test: Western blot for phosphorylated Akt in melanoma cells; type: cell-based, mouse; conditions: western blot (FIG. 19B)
MITF [11] = test: Western blot for MITF protein level in B16-F10 cells; type: cell-based, mouse; conditions: western blot vs DMSO control (FIG. 21)
From the text: (§5) To understand how A11 inhibits melanoma proliferation, we examined the MITF expression level in A11-treated B16-F10 cells by western blot and RT-qPCR.

MITF [12] = test: RT-qPCR of MITF (mit-f) in melanoma cells; type: cell-based, mouse
From the text: as §5
(§6) The results of several qPCR experiments using melanoma cells were compiled in FIG. 20. Pax3 and sox10 are genes determine the melanocyte precursors while mit-f is the specific transcription factor that initiates melanocyte differentiation. Dct and tyr genes are expressed in differentiated melanocytes. […] The decrease in magnitude is not significant likely due to the very heterogeneous cell types in melanoma.

Pax3 = test: RT-qPCR of Pax3 in melanoma cells; type: cell-based, mouse
From the text: as §5, §6

[13] = test system: DCT (dopachrome tautomerase); test: RT-qPCR of DCT in melanoma cells; type: cell-based, mouse
From the text: as §5, §6

tyrosinase [14] = test: RT-qPCR of tyrosinase in melanoma cells; type: cell-based, mouse
From the text: as §5, §6

[15] = test system: dct-expressing cells (differentiated melanocytes); test: In situ hybridization for the dct gene in zebrafish embryos; type: in vivo; conditions: zebrafish embryos (FIG. 22)
From the text: To further understand the mechanism of A11, we examined the development of melanocytes by in situ hybridization for the dct (dopachrome tautomerase) gene which is expressed in differentiated melanocytes.

tyrosinase [16] = test: Effect on tyrosinase expression (FIG. 8)
From the text: FIG. 8 is a graph of the effects of various pigment reducing compositions on tyrosinase expression;
as §4

MEK = MEK activity (FIG. 12)
From the text: FIG. 12 are photo illustrations of MEK activity with exemplary embodiments of the human drug treatments of the present invention; and
as §4

Structure (SMILES): COc1cc(O)cc(/C=C/Oc2ccccc2C)c1 [Analog A11, 2-Methylphenyl-E-(3-hydroxy-5-methoxy)-styryl Ether]
- pigmentation inhibition (in words) (zebrafish embryos [1]): nearly complete pigmentation loss; also recorded: inhibits pigmentation formation
- Pigmentation (zebrafish embryos [1]; 10 μM): < 5%
- existing pigment remaining (zebrafish embryos [2]): 20%
- pigmentation recovered after wash-off (zebrafish embryos [3]): 50%
- pigmentation recovered after wash-off (zebrafish embryos [3]; listed as A-11): approximately 50%
- Pigmentation (zebrafish embryos [4]): 10%
- Average Melanoma growth (from the previous chart) (B16-F10 melanoma cells [5]; 2 μM): 86%
- Average Melanoma growth (from the previous chart) (B16-F10 melanoma cells [5]; 10 μM): 88%
- Average Melanoma growth (from the previous chart) (B16-F10 melanoma cells [5]; 20 μM): 81%
- Average Melanoma growth (from the previous chart) (B16-F10 melanoma cells [5]; 40 μM): 50%
- cell proliferation compared to the control (B16-F10 melanoma cells [5]; 40 μM (FIG. 14)): 50%
- EC50 (B16-F10 melanoma cells [5]; Mus musculus, B16-F10, melanoma cells (FIG. 14), read-out: EC50 in inhibiting melanoma growth): ~40 µM
- melanoma cell death (in words) (B16-F10 melanoma cells [5]; any of the tested concentrations): no cell death was observed
- inhibition of melanoma cell growth / cell number (in words) (B16-F10 melanoma cells [5]; melanoma cells): decrease of melanin as well as the cell number
- Growth (B16-F10 melanoma cells [5]; melanoma cells, 2 μM): 86%
- Growth (B16-F10 melanoma cells [5]; melanoma cells, 10 μM): 88% and 92% and 101% and 69%
- Growth (B16-F10 melanoma cells [5]; melanoma cells, 20 μM): 81% and 80%
- Melanin (B16-F10 melanoma cells [6]; 2 μM): 99%
- Melanin (B16-F10 melanoma cells [6]; 10 μM): 104% and 84% and 97% and 95% and 100%
- Melanin (B16-F10 melanoma cells [6]; 20 μM): 101% and 92%
- Melanin (B16-F10 melanoma cells [6]; 40 μM): 84% and 68% and 56%
- melanin in B16-F10 cells (in words) (B16-F10 melanoma cells [6]; mouse cell line B16-F10): decrease of melanin
- toxicity to normal melanocytes (in words) [7]: does not seem to cause high toxicity
- inhibition of growth of normal melanocytes (in words) ([7]; 10 μM): did not show any inhibition
- formation and recovery of melanoma (in words) [8]: inhibited the formation and recovery of melanoma; also recorded: inhibit both the formation of melanoma and the recovery of melanoma
- mitotic index of melanoma cells (in words) (melanoma cells): significantly lower mitotic index
- mitosis / mitotic index of melanocytes (in words) [9]: reduces mitosis
- melanocyte apoptosis / cell death (in words) [10]: does not induce apoptosis; also recorded: no significant difference
- amount of p-MAPK / MAPK activity (in words) (MAPK): significantly increase the MAPK activity; also recorded: increases the amount of p-MAPK
- phosphorylated Akt (in words) (Akt): slight increase of phosphorylated Akt
- MITF protein level (in words) (MITF [11]): distinguishably lower
- MITF (mit-f) mRNA expression (in words) (MITF [12]): lower amount of MITF mRNA; also recorded: expressed at high level; also recorded: decreases the expression of mit-f gene
- Pax3 expression (in words) (Pax3): reduces Pax3 expression
- DCT expression (in words) [13]: decreased
- tyrosinase expression (in words) (tyrosinase [14]): decreased
- number of dct-expressing cells (in words) [15]: significantly lower than in the control
- tyrosinase formation (in words) (tyrosinase [16]): not to inhibit tyrosinase formation
- MEK activity (in words) (MEK): increasing MEK activity
